Results published in US12030867B2, “Hsp90β selective inhibitors” (University of Notre Dame du Lac, priority 2018, dated 2024).
Like-named read-outs stand apart in the source and are kept apart here.

Legend:
Hsp90α = Hsp90α (Homo sapiens (Human), UniProt P07900); test: fluorescence polarization (FP) assay, competitive displacement of FITC labeled Geldanamycin; type: binding
Experimental: (§1) Once prepared, the compounds were evaluated for their binding affinities against the cytosolic isoforms, Hsp90α and Hsp90β by measuring their ability to competitively displace FITC labeled Geldanamycin (GDA) in a fluorescence polarization assay (apparent Kd's listed in Table 1). […] The alkyne (4k) was investigated to determine whether a linear substituent could project into the subpocket and affect selectivity.

Hsp90β [1] = molecular target: T1, Hsp90β (Homo sapiens (Human), UniProt P08238); test: as above; type: binding
Experimental: as §1

Trap-1 = Trap-1 (Homo sapiens (Human), UniProt Q12931); test: binding affinity towards Trap-1
Grp94 = Grp94 (Homo sapiens (Human), UniProt P14625); test: binding affinity towards Grp94
[2] = test system: Hsp90 client proteins in UM-UC-3 cells; test: western blot analysis of client proteins in UM-UC-3 cells; type: cell-based; settings: 24-hour incubation
Experimental: Since Hsp90 inhibition induces the degradation of Hsp90-dependent substrates via the ubiquitin-proteosome pathway, the levels of both kinase and non-kinase Hsp90 clients were assessed via western blot analysis. […]. […] […]. Survivin, which is an Hsp90α dependent substrate was not affected, providing direct evidence for isoform-selective inhibition in a cellular context.

HT29 cells = test: cells; settings: Homo sapiens, HT-29
other colon cancer cells = test: cells
[3] = test system: UM-UC-3 bladder cancer cells; test: cells; settings: Homo sapiens, UMUC3
[4] = test system: PC3-MM2 prostate cancer cells; test: cells; settings: Homo sapiens, PC3MM2
[5] = test system: LNCap-LN3 prostate cancer cells; test: cells
[6] = test system: C4-2b prostate cancer cells; test: cells
[7] = test system: LAPC4 prostate cancer cells; test: cells; settings: Homo sapiens
prostate cancer cells = test: cells; settings: read-out: efficacy against prostate cancer cells
T24 bladder cancer cells = test: tissue or blood
Hsp90β [8] = molecular target: T1, Hsp90β; settings: previously reported inhibitors; cited from earlier work
[9] = apparent Kd, FP assay, read-out: Hsp90α Kd
[10] = apparent Kd, FP assay, read-out: Hsp90β Kd

T1 sequence (P08238 whole entry): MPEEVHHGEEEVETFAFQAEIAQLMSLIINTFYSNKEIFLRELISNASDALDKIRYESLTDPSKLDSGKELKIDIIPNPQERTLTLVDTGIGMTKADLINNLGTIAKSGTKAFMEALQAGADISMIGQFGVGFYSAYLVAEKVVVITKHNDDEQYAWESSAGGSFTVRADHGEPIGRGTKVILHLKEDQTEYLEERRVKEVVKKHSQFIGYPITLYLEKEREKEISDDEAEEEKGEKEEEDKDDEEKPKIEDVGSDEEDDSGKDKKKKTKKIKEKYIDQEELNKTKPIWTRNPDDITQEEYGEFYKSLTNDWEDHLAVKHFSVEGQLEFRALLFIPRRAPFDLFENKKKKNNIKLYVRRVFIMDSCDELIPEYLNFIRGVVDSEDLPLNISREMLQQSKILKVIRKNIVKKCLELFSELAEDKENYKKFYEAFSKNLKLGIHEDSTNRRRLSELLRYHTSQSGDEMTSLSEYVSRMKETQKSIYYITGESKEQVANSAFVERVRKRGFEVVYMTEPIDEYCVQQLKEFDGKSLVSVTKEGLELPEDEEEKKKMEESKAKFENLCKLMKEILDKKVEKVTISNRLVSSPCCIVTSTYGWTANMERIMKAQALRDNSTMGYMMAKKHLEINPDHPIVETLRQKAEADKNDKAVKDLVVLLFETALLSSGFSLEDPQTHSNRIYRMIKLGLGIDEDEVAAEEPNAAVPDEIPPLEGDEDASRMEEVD
Grp94, sequence (P14625 22-803, species assumed): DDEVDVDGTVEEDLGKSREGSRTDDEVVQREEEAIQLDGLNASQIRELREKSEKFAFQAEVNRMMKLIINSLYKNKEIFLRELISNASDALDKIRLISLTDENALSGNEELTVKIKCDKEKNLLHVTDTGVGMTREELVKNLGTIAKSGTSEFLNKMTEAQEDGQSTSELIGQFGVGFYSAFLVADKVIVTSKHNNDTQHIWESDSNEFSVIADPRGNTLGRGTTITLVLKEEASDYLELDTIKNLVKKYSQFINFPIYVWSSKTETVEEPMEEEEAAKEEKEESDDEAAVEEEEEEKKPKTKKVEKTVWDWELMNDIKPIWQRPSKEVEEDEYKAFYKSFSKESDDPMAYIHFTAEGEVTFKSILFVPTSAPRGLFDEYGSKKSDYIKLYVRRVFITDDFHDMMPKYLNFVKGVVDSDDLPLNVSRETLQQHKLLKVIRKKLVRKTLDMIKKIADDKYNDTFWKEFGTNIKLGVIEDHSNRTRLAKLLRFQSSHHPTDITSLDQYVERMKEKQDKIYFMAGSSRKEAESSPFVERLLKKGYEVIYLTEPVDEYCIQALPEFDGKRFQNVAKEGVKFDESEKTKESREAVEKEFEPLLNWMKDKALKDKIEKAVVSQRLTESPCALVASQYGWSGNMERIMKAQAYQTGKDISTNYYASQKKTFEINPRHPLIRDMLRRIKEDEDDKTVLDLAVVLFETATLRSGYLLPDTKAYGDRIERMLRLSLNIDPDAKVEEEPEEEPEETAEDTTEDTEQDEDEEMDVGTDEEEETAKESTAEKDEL
Trap-1, sequence (Q12931 60-704): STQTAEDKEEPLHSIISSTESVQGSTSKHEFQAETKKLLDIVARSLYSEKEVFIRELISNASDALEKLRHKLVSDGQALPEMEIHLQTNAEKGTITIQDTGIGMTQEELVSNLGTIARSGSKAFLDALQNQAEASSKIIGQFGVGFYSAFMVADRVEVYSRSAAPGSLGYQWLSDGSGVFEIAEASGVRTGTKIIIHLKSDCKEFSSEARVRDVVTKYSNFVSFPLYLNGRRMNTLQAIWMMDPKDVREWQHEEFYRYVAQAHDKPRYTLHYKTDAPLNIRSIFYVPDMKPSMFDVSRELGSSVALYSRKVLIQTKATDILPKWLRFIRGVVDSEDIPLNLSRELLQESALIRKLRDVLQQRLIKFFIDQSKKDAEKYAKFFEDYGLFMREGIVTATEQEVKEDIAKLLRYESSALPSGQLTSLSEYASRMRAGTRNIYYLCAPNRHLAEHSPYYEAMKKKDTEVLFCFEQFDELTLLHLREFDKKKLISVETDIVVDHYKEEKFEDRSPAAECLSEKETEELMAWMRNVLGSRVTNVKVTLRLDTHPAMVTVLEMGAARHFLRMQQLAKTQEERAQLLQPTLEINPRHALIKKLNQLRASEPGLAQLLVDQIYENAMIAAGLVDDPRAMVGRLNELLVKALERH

Compound | Kd (Hsp90α; [9]) [µM] | Kd (Hsp90β [1]; [10]) [µM] | selectivity for Hsp90β over Hsp90α (in words) (Hsp90β [1]; FP assay) | other results
Cc1cc2cc(-n3nc(C)c4c3CC(C)(C)CC4=O)cc(N[C@H]3CC[C@H](O)CC3)c2c(=O)[nH]1 [Compound 4a, 8-(((1r,4r)-4-hydroxycyclohexyl)amino)-3-methyl-6-(3,6,6-trimethyl-4-oxo-4,5,6,7-tetrahydro-1H-indazol-1-yl)isoquinolin-1(2H)-one] | 0.294 ± 0.023 | 0.101 ± 0.003 | – | selectivity for Hsp90β over Hsp90α (Hsp90β [1]): 3 fold
CCc1cc2cc(-n3nc(C)c4c3CC(C)(C)CC4=O)cc(N[C@H]3CC[C@H](O)CC3)c2c(=O)[nH]1 [Compound 4b, 3-ethyl-8-(((1r,4r)-4-hydroxycyclohexyl)amino)-6-(3,6,6-trimethyl-4-oxo-4,5,6,7-tetrahydro-1H-indazol-1-yl)isoquinolin-1(2H)-one] | 0.18 ± 0.036 | 0.068 ± 0.008 | – | –
Cc1nn(-c2cc(N[C@H]3CC[C@H](O)CC3)c3c(=O)[nH]c(C(C)C)cc3c2)c2c1C(=O)CC(C)(C)C2 [Compound 4c, 8-(((1r,4r)-4-hydroxycyclohexyl)amino)-3-isopropyl-6-(3,6,6-trimethyl-4-oxo-4,5,6,7-tetrahydro-1H-indazol-1-yl)isoquinolin-1(2H)-one] | 0.173 ± 0.036 | 0.051 ± 0.008 | – | –
CCCc1cc2cc(-n3nc(C)c4c3CC(C)(C)CC4=O)cc(N[C@H]3CC[C@H](O)CC3)c2c(=O)[nH]1 [Compound 4d, 8-(((1r,4r)-4-hydroxycyclohexyl)amino)-3-propyl-6-(3,6,6-trimethyl-4-oxo-4,5,6,7-tetrahydro-1H-indazol-1-yl)isoquinolin-1(2H)-one] | – | – | – | Kd (Trap-1): > 5 µM; Kd (Grp94): > 5 µM; CXCR4 and B-raf levels (Hsp90β-dependent clients) [2]: marked dose-dependent reduction; FGFR3 level [2]: marked dose-dependent reduction; Hsp27 and Hsf-1 levels (heat shock related proteins) [2]: declined upon increasing doses; Survivin level (Hsp90α dependent substrate) [2]: not affected; GI50 (HT29 cells): 0.026 µM; GI50 (other colon cancer cells): 0.05 to 0.08 µM; GI50 [3]: 0.508 µM; GI50 [4]: 1.24 µM; GI50 [5]: 1.18 µM; GI50 [6]: 1.03 µM; GI50 [7]: 2.56 µM; IC50 (prostate cancer cells): 1 to 2.5 µM; GI50 (T24 bladder cancer cells): 0.197 µM
CCCCc1cc2cc(-n3nc(C)c4c3CC(C)(C)CC4=O)cc(N[C@H]3CC[C@H](O)CC3)c2c(=O)[nH]1 [Compound 4e, 3-butyl-8-(((1r,4r)-4-hydroxycyclohexyl)amino)-6-(3,6,6-trimethyl-4-oxo-4,5,6,7-tetrahydro-1H-indazol-1-yl)isoquinolin-1(2H)-one] | > 50 | 0.156 ± 0.018 | – | binding to Hsp90α (in words) (Hsp90α; FP assay): did not bind; Kd (Hsp90β [1]): 0.186 µM; selectivity for Hsp90β over Hsp90α (Hsp90β [1]): > 300 fold; affinity for Hsp90β (in words) (Hsp90β [1]; FP assay): did not bind
Cc1nn(-c2cc(N[C@H]3CC[C@H](O)CC3)c3c(=O)[nH]c(C(C)(C)C)cc3c2)c2c1C(=O)CC(C)(C)C2 [Compound 4f, 3-(tert-butyl)-8-(((1r,4r)-4-hydroxycyclohexyl)amino)-6-(3,6,6-trimethyl-4-oxo-4,5,6,7-tetrahydro-1H-indazol-1-yl)isoquinolin-1(2H)-one] | > 50 | > 50 | – | –
Cc1nn(-c2cc(N[C@H]3CC[C@H](O)CC3)c3c(=O)[nH]c(CC(C)C)cc3c2)c2c1C(=O)CC(C)(C)C2 [Compound 4g, 8-(((1r,4r)-4-hydroxycyclohexyl)amino)-3-isobutyl-6-(3,6,6-trimethyl-4-oxo-4,5,6,7-tetrahydro-1H-indazol-1-yl)isoquinolin-1(2H)-one] | > 50 | 0.264 ± 0.03 | maintained selectivity | affinity for Hsp90β (in words) (Hsp90β [1]; FP assay): decrease in affinity
Cc1nn(-c2cc(N[C@H]3CC[C@H](O)CC3)c3c(=O)[nH]c(C4CC4)cc3c2)c2c1C(=O)CC(C)(C)C2 [Compound 4h, 3-cyclopropyl-8-(((1r,4r)-4-hydroxycyclohexyl)amino)-6-(3,6,6-trimethyl-4-oxo-4,5,6,7-tetrahydro-1H-indazol-1-yl)isoquinolin-1(2H)-one] | 1.88 ± 0.28 | 0.946 ± 0.038 | – | affinity for Hsp90β (in words) (Hsp90β [1]; FP assay): loss of potency
COCc1cc2cc(-n3nc(C)c4c3CC(C)(C)CC4=O)cc(N[C@H]3CC[C@H](O)CC3)c2c(=O)[nH]1 [Compound 4i, 8-(((1r,4r)-4-hydroxycyclohexyl)amino)-3-(methoxymethyl)-6-(3,6,6-trimethyl-4-oxo-4,5,6,7-tetrahydro-1H-indazol-1-yl)isoquinolin-1(2H)-one] | 0.306 ± 0.023 | 0.159 ± 0.003 | loss of selectivity | –
Cc1nn(-c2cc(N[C@H]3CC[C@H](O)CC3)c3c(=O)[nH]c(CO)cc3c2)c2c1C(=O)CC(C)(C)C2 [Compound 4j, 8-(((1r,4r)-4-hydroxycyclohexyl)amino)-3-(hydroxymethyl)-6-(3,6,6-trimethyl-4-oxo-4,5,6,7-tetrahydro-1H-indazol-1-yl)isoquinolin-1(2H)-one] | 0.824 ± 0.104 | 0.233 ± 0.018 | loss of selectivity | –
C#Cc1cc2cc(-n3nc(C)c4c3CC(C)(C)CC4=O)cc(N[C@H]3CC[C@H](O)CC3)c2c(=O)[nH]1 [Compound 4k, 3-ethynyl-8-(((1r,4r)-4-hydroxycyclohexyl)amino)-6-(3,6,6-trimethyl-4-oxo-4,5,6,7-tetrahydro-1H-indazol-1-yl)isoquinolin-1(2H)-one] | 0.381 ± 0.003 | 0.337 ± 0.015 | without discrimination | –
CCCc1cc2cc(-n3nc(C)c4c3CC(C)(C)CC4=O)cc(N3CCOCC3)c2c(=O)[nH]1 [Compound 5a, 8-morpholino-3-propyl-6-(3,6,6-trimethyl-4-oxo-4,5,6,7-tetrahydro-1H-indazol-1-yl)isoquinolin-1(2H)-one] | > 50 | 0.121 ± 0.017 | excellent selectivity | Kd (Hsp90β [1]; read-out: Kd for Hsp90β): ~0.121 µM
CCCc1cc2cc(-n3nc(C)c4c3CC(C)(C)CC4=O)cc(N3CCN(C)CC3)c2c(=O)[nH]1 [Compound 5c, 8-(4-methylpiperazin-1-yl)-3-propyl-6-(3,6,6-trimethyl-4-oxo-4,5,6,7-tetrahydro-1Hindazol-1-yl)isoquinolin-1(2H)-one] | 8.52 ± 0.24 | 0.426 ± 0.053 | decrease in affinity and selectivity | affinity for Hsp90β (in words) (Hsp90β [1]; FP assay): decrease in affinity
CCCc1cc2cc(-n3nc(C)c4c3CC(C)(C)CC4=O)cc(N3CCNCC3)c2c(=O)[nH]1 [Compound 5d, 8-(piperazin-1-yl)-3-propyl-6-(3,6,6-trimethyl-4-oxo-4,5,6,7-tetrahydro-1H-indazol-1-yl)isoquinolin-1(2H)-one] | > 50 | 4.47 ± 0.278 | – | –
CCCc1cc2cc(-n3nc(C)c4c3CC(C)(C)CC4=O)cc(N3CCN(C(=O)OC(C)(C)C)CC3)c2c(=O)[nH]1 [Compound 5e, tert-butyl 4-(1-oxo-3-propyl-6-(3,6,6-trimethyl-4-oxo-4,5,6,7-tetrahydro-1H-indazol-1-yl)-1,2-dihydroisoquinolin-8-yl)piperazine-1-carboxylate] | – | – | – | Kd (Hsp90α): > 50 µM; Kd (Hsp90β [1]): 0.463 ± 0.031 µM
CCCc1cc2cc(-n3nc(C)c4c3CC(C)(C)CC4=O)cc(NC3CCN(C)CC3)c2c(=O)[nH]1 [Compound 5f, 8-((1-methylpiperidin-4-yl)amino)-3-propyl-6-(3,6,6-trimethyl-4-oxo-4,5,6,7-tetrahydro-1Hindazol-1-yl)isoquinolin-1(2H)-one] | 17.1 ± 0.66 | 0.513 ± 0.067 | – | –
CCCc1cc2cc(-n3nc(C)c4c3CC(C)(C)CC4=O)cc(N(C)CCN(CC)CC)c2c(=O)[nH]1 [Compound 5g, 8-((2-(diethylamino)ethyl)(methyl)amino)-3-propyl-6-(3,6,6-trimethyl-4-oxo-4,5,6,7-tetrahydro-1H-indazol-1-yl)isoquinolin-1(2H)-one] | > 50 | 4.46 ± 0.188 | – | –
CCCC1Cc2cc(-n3nc(C)c4c3CC(C)(C)CC4=O)cc(N3CCC(O)CC3)c2C(=O)N1 (centres unmarked) [Compound 6b, 8-(4-hydroxypiperidin-1-yl)-3-propyl-6-(3,6,6-trimethyl-4-oxo-4,5,6,7-tetrahydro-1Hindazol-1-yl)-3,4-dihydroisoquinolin-1(2H)-one] | – | – | lost both selectivity and affinity | affinity for Hsp90β (in words) (Hsp90β [1]; FP assay): lost both selectivity and affinity
CC1(C)CC(=O)c2c(C(F)(F)F)nn(-c3ccc(C(N)=O)c(N[C@H]4CC[C@H](O)CC4)c3)c2C1 [SNX 2112] | – | – | – | Hsp90α/Hsp90β isoform profile (in words) (Hsp90β [8]): equipotent affinity
